Measured values taken from the Deep4Chem optical property database.
One block for each compound: values may come before it.

Assay: solvent given as SMILES

- emission maximum (in O): 500 nm
Structure (SMILES): COc1cc(N(CC(=O)[O-])CC(=O)[O-])c2nc(COc3cc(C)ccc3N(CC(=O)[O-])CC(=O)[O-])ccc2c1

- emission maximum (in CC#N): 728 nm
- emission maximum (in CCO): 721 nm
- emission maximum (in CO): 720 nm
- emission maximum (in ClC(Cl)Cl): 722 nm
Structure (SMILES): CCNc1cc2c(cc1C)C(c1ccccc1C(=O)O)=C1CCCC(/C=C/C3=[N+](C)c4ccccc4C3(C)C)=C1O2

- emission maximum (in C1CCOC1): 389.5 nm
Structure (SMILES): C#Cn1c(-c2cc(-c3nc4ccc(C)cc4n3C#C)cc(-c3nc4ccc(C)cc4n3C#C)c2)nc2ccc(C)cc21

- emission maximum (in CC#N): 612 nm
Structure (SMILES): CC1=[N+]2C(=C(c3ccccc3)c3c4c(c(C)n3[B-]2(F)F)CCc2ccccc2-4)C2=C1CCc1ccccc12

- emission maximum (in CC1CCCO1): 490 nm
- emission maximum (in CC#N): 529 nm
Structure (SMILES): Cn1c(=O)nc2n(C)c3ccccc3nc-2c1=O

- emission maximum (in ClCCl): 471 nm
Structure (SMILES): COc1ccc2ccccc2c1C1=CC(c2ccccc2)=C(c2ccccc2)C1

- emission maximum (in ClC(Cl)Cl): 383 nm
Structure (SMILES): Cc1c2c(nc3ccccc13)-c1cc3c(cc1CC2)-c1nc2ccccc2c(C)c1CC3

- emission maximum (in CCO): 459 nm
Structure (SMILES): Cc1c(COC(=O)c2ccccc2Cl)n2c(OCC(=O)c3ccccc3Cl)c(C)c(=O)n2c1=O

- emission maximum (in c1ccccc1): 608 nm
Structure (SMILES): CN(C)c1ccc2ccc3oc(=O)c(-c4ccccc4)nc3c2c1

- emission maximum (in O): 555 nm
Structure (SMILES): N#Cc1c(N2CCCCC2)cc(-c2cccs2)c2c1-c1cccc3cccc-2c13

- emission maximum (in ClCCl): 480 nm
Structure (SMILES): CCCc1ccc(C#Cc2ccc3nc4ccc(C#Cc5ccc(CCC)cc5)cn4c(=O)c3c2)cc1

- emission maximum (in ClC(Cl)Cl): 426 nm
Structure (SMILES): COc1ccc2cc(-c3cccc(-c4cc5ccc(OC)cc5oc4=O)c3)c(=O)oc2c1

- emission maximum (in ClCCl): 526 nm
Structure (SMILES): CCCc1c(C(=O)c2ccc3c4c(cccc24)-c2cccc4c2C3CC=C4)c2ccc3cccc4c5cccc6ccc1c(c65)c2c34 (configuration not stated)

The remaining lines, values behind:

Structure (SMILES): Cc1cc(C)c(B(c2cc(C#Cc3ccccc3)sc2-c2sc(C#Cc3ccccc3)cc2P(=O)(c2ccccc2)c2ccccc2)c2c(C)cc(C)cc2C)c(C)c1
- emission maximum (in CO): 560 nm

Structure (SMILES): CN1c2cc3nc4cc(Cl)c(Cl)cc4nc3cc2N(C)C1(C)C
- emission maximum (in CCO): 497 nm

Structure (SMILES): c1ccc2c(-c3cncnc3)c3ccccc3c(-c3cncnc3)c2c1
- emission maximum (in CCO): 417 nm
- emission maximum (in ClCCl): 417 nm

Structure (SMILES): Cc1cc(C)c(C)c(B(c2c(C)c(C)c(N3c4ccccc4Oc4ccccc43)c(C)c2C)c2c(C)c(C)c(N3c4ccccc4Oc4ccccc43)c(C)c2C)c1C
- emission maximum (in CC(C)(C)c1ccc(-n2c3ccc([Si](c4ccccc4)(c4ccccc4)c4ccccc4)cc3c3cc([Si](c4ccccc4)(c4ccccc4)c4ccccc4)ccc32)cc1): 484 nm

Structure (SMILES): CCCCn1c2ccc(C#N)cc2c2cc(C#N)cc(-c3ccc(N(c4ccccc4)c4ccccc4)cc3)c21
- emission maximum (in C1CCCCC1): 407 nm
- emission maximum (in C1CCOC1): 440 nm
- emission maximum (in CC#N): 474 nm
- emission maximum (in CCCCOCCCC): 412 nm
- emission maximum (in CCN(CC)CC): 410.48 nm
- emission maximum (in CCOC(C)=O): 438 nm
- emission maximum (in CCOCC): 424 nm
- emission maximum (in CN(C)C=O): 472 nm
- emission maximum (in Cc1ccccc1): 415 nm
- emission maximum (in ClC=C(Cl)Cl): 420 nm
- emission maximum (in ClCCl): 447 nm

Structure (SMILES): CC1=[N+]2C(=C(c3ccc(N(C)C)cc3)c3ccc(C)n3[B-]2(F)F)C=C1
- emission maximum (in C1CCCCC1): 518 nm
- emission maximum (in C1CCOC1): 517 nm
- emission maximum (in CC#N): 511 nm
- emission maximum (in CC(=O)C(C)(C)C): 512 nm
- emission maximum (in CC(C)=O): 515 nm
- emission maximum (in CCCCCC): 519 nm
- emission maximum (in CCOC(C)=O): 513 nm
- emission maximum (in CO): 511 nm
- emission maximum (in Cc1ccccc1): 580 nm
- emission maximum (in ClC(Cl)Cl): 615 nm

Structure (SMILES): O=C(c1ccc(-n2c3ccccc3c3ccccc32)cc1)c1ccc(-n2c3ccccc3c3ccccc32)cc1
- emission maximum (in Cc1ccccc1): 438 nm
- emission maximum (in O=P(c1ccccc1)(c1ccccc1)c1ccccc1Oc1ccccc1P(=O)(c1ccccc1)c1ccccc1): 444 nm

Structure (SMILES): Cc1ccc(-n2c3ccc(-c4ccc(-c5nc6ccccc6n5-c5ccccc5)cc4)cc3c3cc(-c4ccc(-c5nc6ccccc6n5-c5ccccc5)cc4)ccc32)cc1
- emission maximum (in ClC(Cl)Cl): 410 nm

Structure (SMILES): CCOC(CN1C(=O)C2=C(c3ccc(OC)c(OC)c3)N(CC(OCC)OCC)C(=O)C2=C1c1ccc(OC)c(OC)c1)OCC
- emission maximum (in ClC(Cl)Cl): 538 nm

Structure (SMILES): C1=C/C2=C(\c3ccccc3)c3c[nH]c(c3)/C(c3ccccc3)=C3/C=CC(=N3)/C(c3ccccc3)=c3/cc/c([nH]3)=C(\c3ccccc3)C1=N2
- emission maximum (in CC(=O)N(C)C): 713 nm

Structure (SMILES): O=Cc1ccc(C#CC(C#Cc2ccc(C=O)s2)=Cc2ccc(C=C(C#Cc3ccc(C=O)s3)C#Cc3ccc(C=O)s3)s2)s1
- emission maximum (in ClC(Cl)Cl): 595 nm

Structure (SMILES): O=S(=O)([O-])c1cc([O-])c2ccc3c(S(=O)(=O)[O-])cc(S(=O)(=O)[O-])c4ccc1c2c34
- emission maximum (in CC#N): 513 nm
- emission maximum (in CC(C)O): 511.01 nm
- emission maximum (in CCO): 510 nm
- emission maximum (in CO): 509.01 nm
- emission maximum (in NC=O): 519 nm
- emission maximum (in O): 511.01 nm
- emission maximum (in OC(C(F)(F)F)C(F)(F)F): 506 nm
- emission maximum (in OCC(F)(F)F): 508 nm
- emission maximum (in OCCO): 512.01 nm

Structure (SMILES): c1ccc2c(-c3ccc(-c4nnc(-c5ccc(-c6nnc(-c7ccc(-c8cccc9ccccc89)s7)o6)cc5)o4)s3)cccc2c1
- emission maximum (in C1COCCO1): 434 nm
- emission maximum (in CC#N): 458 nm
- emission maximum (in CC(=O)N(C)C): 462 nm
- emission maximum (in CCCCCCCCCCO): 440 nm
- emission maximum (in CCCCCCCCO): 442 nm
- emission maximum (in CCCCCCO): 445 nm
- emission maximum (in CCCCO): 451 nm
- emission maximum (in CCO): 459 nm
- emission maximum (in CS(C)=O): 468 nm
- emission maximum (in Cc1ccccc1): 434 nm
- emission maximum (in ClC(Cl)Cl): 410 nm

Structure (SMILES): CCN1C(=CC=Cc2n(CC)c3cc(Cl)c(Cl)cc3[n+]2CC)N(CC)c2cc(Cl)c(Cl)cc21
- emission maximum (in CC#N): 529 nm
- emission maximum (in CCCCCCO): 535 nm
- emission maximum (in CCCCO): 534 nm
- emission maximum (in CCCO): 532 nm
- emission maximum (in CCO): 530 nm
- emission maximum (in CO): 528 nm
- emission maximum (in CS(C)=O): 536 nm
- emission maximum (in OCC(O)CO): 535 nm
- emission maximum (in OCCO): 532 nm

Structure (SMILES): CCCCC1(c2ccc(OC)cc2)Nc2ccccc2N=C1c1ccc(OC)cc1 (configuration not stated)
- emission maximum (in C1CCOC1): 513 nm
- emission maximum (in CC#N): 522 nm
- emission maximum (in CCCCCC): 485 nm
- emission maximum (in CN(C)C=O): 525 nm
- emission maximum (in Cc1ccccc1): 501 nm
- emission maximum (in ClC(Cl)Cl): 507 nm

Structure (SMILES): [C-]#[N+]c1ccc(-c2ccc(N(C)C)cc2)cc1
- emission maximum (in C1CCCCC1): 360 nm
- emission maximum (in C1CCOC1): 408 nm
- emission maximum (in C1COCCO1): 397 nm
- emission maximum (in CC#N): 429 nm
- emission maximum (in CC(C)=O): 422 nm
- emission maximum (in CCCCCC): 357 nm
- emission maximum (in CCOC(C)=O): 406 nm
- emission maximum (in CN(C)C=O): 433 nm
- emission maximum (in CO): 430 nm
- emission maximum (in CS(C)=O): 447 nm
- emission maximum (in Cc1ccccc1): 387 nm
- emission maximum (in ClC(Cl)Cl): 405 nm
- emission maximum (in ClCCl): 412 nm
- emission maximum (in O): 417 nm
- emission maximum (in c1ccncc1): 422 nm

Structure (SMILES): COc1nc(Nc2ccc3c4c(cccc24)C(=O)c2ccccc2-3)nc(OC)n1
- emission maximum (in CC#N): 554.02 nm
- emission maximum (in CC(C)=O): 533.9 nm
- emission maximum (in CC(C)O): 576.04 nm
- emission maximum (in CCCCOCCCC): 516 nm
- emission maximum (in CCOC(C)=O): 523.01 nm
- emission maximum (in CCOCC): 520.02 nm
- emission maximum (in CO): 586.85 nm
- emission maximum (in Cc1ccccc1): 521.92 nm
- emission maximum (in Clc1ccccc1): 526.87 nm
- emission maximum (in N#Cc1ccccc1): 535.91 nm
- emission maximum (in O=C1CCCCC1): 531.91 nm

Structure (SMILES): CC(C)(C)c1ccc(-c2c(-c3ccc(-n4c5ccccc5c5ccccc54)cc3)cc(-c3ccc(-n4c5ccccc5c5ccccc54)cc3)c(-c3ccc(C(C)(C)C)cc3)c2-c2ccc(C(C)(C)C)cc2)cc1
- emission maximum (in C1CCOC1): 367 nm

Structure (SMILES): N#Cc1c(N2CCCCC2)cc(-c2ccc(O)cc2)c2c1-c1cccc3cccc-2c13
- emission maximum (in C1CCCCC1): 527 nm
- emission maximum (in C1COCCO1): 540 nm
- emission maximum (in CC#N): 569 nm
- emission maximum (in CCO): 548 nm
- emission maximum (in CN(C)C=O): 573 nm
- emission maximum (in CO): 554 nm
- emission maximum (in CS(C)=O): 580 nm
- emission maximum (in Cc1ccccc1): 530 nm
- emission maximum (in ClCCl): 545 nm
- emission maximum (in O): 550 nm

Structure (SMILES): O=C1C=Cc2cc3ccccc3c(=O)n21
- emission maximum (in CC#N): 410 nm
- emission maximum (in CO): 450 nm
- emission maximum (in CS(C)=O): 420 nm
- emission maximum (in ClC(Cl)Cl): 410 nm

Structure (SMILES): F[B-]1(F)n2c(c3cccc4cccc2c43)=Nc2sc3ccccc3[n+]21
- emission maximum (in C1CCOC1): 501 nm
- emission maximum (in CC#N): 500 nm
- emission maximum (in CCCCCC): 493 nm
- emission maximum (in Cc1ccccc1): 504 nm
- emission maximum (in ClCCl): 529 nm

Structure (SMILES): N#CSC1=CC2=C(c3ccccc3)c3cc(SC#N)c(N4CCOCC4)n3[B-](F)(F)[N+]2=C1N1CCOCC1
- emission maximum (in CC#N): 628 nm
- emission maximum (in CCCCCC): 623 nm
- emission maximum (in CCOC(C)=O): 628 nm
- emission maximum (in CO): 620 nm
- emission maximum (in ClCCl): 630 nm

Structure (SMILES): CC[C@H](C)COc1ccc(C2=C3C(C)=CC(C)=[N+]3[B-](F)(F)n3c(C)cc(C)c32)cc1
- emission maximum (in ClCCl): 520 nm

Structure (SMILES): C(=C\c1nc(/C=C/c2ccc(N(c3ccccc3)c3ccccc3)cc2)cc(/C=C/c2ccc(N(c3ccccc3)c3ccccc3)cc2)n1)/c1ccccc1
- emission maximum (in C1CCOC1): 520 nm
- emission maximum (in CC#N): 591 nm
- emission maximum (in CC(C)=O): 563 nm
- emission maximum (in CCCCCCC): 464 nm
- emission maximum (in CS(C)=O): 596 nm
- emission maximum (in Cc1ccccc1): 482 nm
- emission maximum (in ClCCl): 551 nm

Structure (SMILES): CCC1(CC)c2cc(-c3ccc(C(C)(C)C)cc3)ccc2-c2ccc(-c3ccc4c(c3)C(CC)(CC)c3cc(-c5ccc6c(c5)C(CC)(CC)c5cc(-c7ccc(C(C)(C)C)cc7)ccc5-6)ccc3-4)cc21
- emission maximum (in CO): 402.3 nm

Structure (SMILES): Cc1ccc(N(CC(=O)[O-])CC(=O)[O-])c(OCCOc2cc3cc(-c4ncc(C(=O)[O-])o4)oc3cc2N(CC(=O)[O-])CC(=O)[O-])c1
- emission maximum (in O): 500 nm

Structure (SMILES): CN(C)C(=O)c1ccc(-c2nc3ccc(N(C)C)cc3s2)cc1
- emission maximum (in C1CCCCC1): 415 nm
- emission maximum (in CC#N): 521 nm
- emission maximum (in CC(C)O): 518 nm
- emission maximum (in CO): 543 nm
- emission maximum (in CS(C)=O): 534 nm
- emission maximum (in ClC(Cl)Cl): 472 nm
- emission maximum (in c1ccccc1): 457 nm
